Data taken from PubChem BioAssay (NCI).
Where “and” joins values, the source holds several entries; their conditions need not be identical. Equal values may be shown once.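 Tested at 5 concentrations; 48 h exposure; 96-well plates; endpoints linearly interpolated, else capped at highest concentration. At the GI50, growth is halved. TGI is the concentration that stops growth completely.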

Assays:
Assay in all cases: NCI anticancer screen, dose series, 48 h
MDA-MB-468 breast = test system: MDA-MB-468 breast
A498 renal = test system: A498 renal
ACHN renal = test system: ACHN renal
CCRF-CEM leukemia = test system: CCRF-CEM leukemia
DU-145 prostate = test system: DU-145 prostate
EKVX NSCLC = test system: EKVX NSCLC
HCC-2998 colon = test system: HCC-2998 colon
HCT-15 colon = test system: HCT-15 colon
HL-60(TB) leukemia = test system: HL-60(TB) leukemia
HS 578T breast = test system: HS 578T breast
IGROV1 ovarian = test system: IGROV1 ovarian
K-562 leukemia = test system: K-562 leukemia
KM12 colon = test system: KM12 colon
LOX IMVI melanoma = test system: LOX IMVI melanoma
MALME-3M melanoma = test system: MALME-3M melanoma
MCF7 breast = test system: MCF7 breast
MDA-MB-231 breast = test system: MDA-MB-231 breast
MDA-MB-435 = test system: MDA-MB-435
NCI-H23 lung = test system: NCI-H23 lung
NCI/ADR-RES ovarian = test system: NCI/ADR-RES ovarian
OVCAR-3 ovarian = test system: OVCAR-3 ovarian
OVCAR-4 ovarian = test system: OVCAR-4 ovarian
OVCAR-5 ovarian = test system: OVCAR-5 ovarian
OVCAR-8 ovarian = test system: OVCAR-8 ovarian
PC-3 prostate = test system: PC-3 prostate
RPMI-8226 leukemia = test system: RPMI-8226 leukemia
RXF 393 renal = test system: RXF 393 renal
SF-295 CNS = test system: SF-295 CNS
SF-539 CNS = test system: SF-539 CNS
SK-MEL-28 melanoma = test system: SK-MEL-28 melanoma
SK-MEL-5 melanoma = test system: SK-MEL-5 melanoma
SN12C renal = test system: SN12C renal
SNB-19 CNS = test system: SNB-19 CNS
SNB-75 CNS = test system: SNB-75 CNS
TK-10 renal = test system: TK-10 renal
U251 CNS = test system: U251 CNS
UACC-62 melanoma = test system: UACC-62 melanoma
UO-31 renal = test system: UO-31 renal

With `Nc1nc(F)nc2c1ncn2C1OC(CO)C(O)C1O` (stereo unspecified) the GI50 (MDA-MB-468 breast) was > 85600 nM and the TGI (MDA-MB-468 breast) was > 100000 nM.
`CC1=C[C@H]2c3c(c(O)c(O)c4oc(-c5ccccc5)cc(=O)c34)[C@H](c3cc(O)c(O)c4oc(-c5ccccc5)cc(=O)c34)[C@H]2C(C)(C)C1` was tested, and the GI50 (MDA-MB-468 breast) was 1380 nM and the TGI (MDA-MB-468 breast) was 4760 nM.
`Cc1ccc(-c2nc3ccc(Cl)cc3c(=O)n2N2C(=O)CSC2c2ccccc2Cl)cc1` (stereo unspecified) was tested, and the GI50 (MDA-MB-468 breast) was 57600 nM and the TGI (MDA-MB-468 breast) was > 100000 nM.
`Nc1ccc2cc3ccc(N)cc3nc2c1` gave a GI50 (MDA-MB-468 breast) of 531 nM and a TGI (MDA-MB-468 breast) of 2220 nM.
`Nc1ccc(-c2nc3ccc(Cc4ccc5nc(-c6ccc(N)cc6)[nH]c5c4)cc3[nH]2)cc1` gave a GI50 (MDA-MB-468 breast) of 1470 nM and a TGI (MDA-MB-468 breast) of 2900 nM.
`Cn1c(=O)c(Cc2ccccc2F)cc2cnc(NC3CCOCC3)nc21` was tested, and the GI50 (MDA-MB-468 breast) was > 25000 nM and the TGI (MDA-MB-468 breast) was > 25000 nM.
Work on `COc1ccc(CCN2COc3c([C@@H](C)CCC=C(C)C)ccc(C)c3C2)cc1OC` yielded a GI50 (MDA-MB-468 breast) of 1230 nM and a TGI (MDA-MB-468 breast) of 2950 nM.
`COc1ccc(-c2nn(-c3ccc(NC(=O)Nc4cc(C(F)(F)F)cc(C(F)(F)F)c4)cc3)cc2-c2ccncc2)cc1Cl` showed a GI50 (MDA-MB-468 breast) of 1800 nM and a TGI (MDA-MB-468 breast) of 6000 nM.
With `CCc1nc(C(N)=O)c(Nc2ccc(N3CCC(N4CCN(C)CC4)CC3)c(OC)c2)nc1NC1CCOCC1` the GI50 (MDA-MB-468 breast) was 12200 nM and 14000 nM and the TGI (MDA-MB-468 breast) was 27700 nM and > 2370 nM and 31800 nM.
`O=C(/C=C\c1ccc(NCc2ccc(C(=O)O)cc2)cc1)CCl` was tested, and the GI50 (MDA-MB-468 breast) was 7360 nM and the TGI (MDA-MB-468 breast) was 23800 nM.
Work on `Brc1ccc(-c2n(Cc3ccc4ccccc4c3)c(-c3ccccc3)c(-c3ccccc3)[n+]2Cc2ccc3ccccc3c2)cc1` yielded a GI50 (A498 renal) of 338 nM, a TGI (A498 renal) of 1310 nM and a GI50 (ACHN renal) of 363 nM. The TGI (ACHN renal) was 1240 nM, the GI50 (CCRF-CEM leukemia) was 342 nM and the TGI (CCRF-CEM leukemia) was 2010 nM. For the same compound, the GI50 (DU-145 prostate) was 381 nM, the TGI (DU-145 prostate) was 1480 nM and the GI50 (EKVX NSCLC) was 197 nM. For the same compound, the TGI (EKVX NSCLC) was 1030 nM, the GI50 (HCC-2998 colon) was 344 nM and the TGI (HCC-2998 colon) was 1370 nM. It also gave a GI50 (HCT-15 colon) of 695 nM, a TGI (HCT-15 colon) of 2020 nM and a GI50 (HL-60(TB) leukemia) of 154 nM. It also gave a TGI (HL-60(TB) leukemia) of 533 nM, a GI50 (HS 578T breast) of 439 nM and a TGI (HS 578T breast) of 2180 nM. It also gave a GI50 (IGROV1 ovarian) of 301 nM, a TGI (IGROV1 ovarian) of 1490 nM and a GI50 (K-562 leukemia) of 152 nM. The TGI (K-562 leukemia) was 1460 nM, the GI50 (KM12 colon) was 276 nM and the TGI (KM12 colon) was 1130 nM. It also gave a GI50 (LOX IMVI melanoma) of 272 nM, a TGI (LOX IMVI melanoma) of 857 nM and a GI50 (MALME-3M melanoma) of 214 nM. The TGI (MALME-3M melanoma) was 635 nM, the GI50 (MCF7 breast) was 221 nM and the TGI (MCF7 breast) was 816 nM. The GI50 (MDA-MB-231 breast) was 239 nM, the TGI (MDA-MB-231 breast) was 707 nM and the GI50 (MDA-MB-435) was 295 nM. The TGI (MDA-MB-435) was 1070 nM, the GI50 (MDA-MB-468 breast) was 68.7 nM and the TGI (MDA-MB-468 breast) was 494 nM. It also gave a GI50 (NCI-H23 lung) of 244 nM, a TGI (NCI-H23 lung) of 817 nM and a GI50 (NCI/ADR-RES ovarian) of 1440 nM. It also gave a TGI (NCI/ADR-RES ovarian) of 2970 nM, a GI50 (OVCAR-3 ovarian) of 253 nM and a TGI (OVCAR-3 ovarian) of 2790 nM. It also gave a GI50 (OVCAR-4 ovarian) of 300 nM, a TGI (OVCAR-4 ovarian) of 1400 nM and a GI50 (OVCAR-5 ovarian) of 305 nM. It also gave a TGI (OVCAR-5 ovarian) of 1240 nM, a GI50 (OVCAR-8 ovarian) of 302 nM and a TGI (OVCAR-8 ovarian) of 1800 nM. For the same compound, the GI50 (PC-3 prostate) was 332 nM, the TGI (PC-3 prostate) was 1500 nM and the GI50 (RPMI-8226 leukemia) was 124 nM. For the same compound, the TGI (RPMI-8226 leukemia) was 744 nM, the GI50 (RXF 393 renal) was 212 nM and the TGI (RXF 393 renal) was 798 nM. For the same compound, the GI50 (SF-295 CNS) was 220 nM, the TGI (SF-295 CNS) was 682 nM and the GI50 (SF-539 CNS) was 338 nM. For the same compound, the TGI (SF-539 CNS) was 1250 nM, the GI50 (SK-MEL-28 melanoma) was 428 nM and the TGI (SK-MEL-28 melanoma) was 1580 nM. It also gave a GI50 (SK-MEL-5 melanoma) of 169 nM, a TGI (SK-MEL-5 melanoma) of 316 nM and a GI50 (SN12C renal) of 256 nM. It also gave a TGI (SN12C renal) of 1010 nM, a GI50 (SNB-19 CNS) of 314 nM and a TGI (SNB-19 CNS) of 1250 nM. It also gave a GI50 (SNB-75 CNS) of 189 nM, a TGI (SNB-75 CNS) of 1020 nM and a GI50 (TK-10 renal) of 296 nM. The TGI (TK-10 renal) was 1190 nM, the GI50 (U251 CNS) was 248 nM and the TGI (U251 CNS) was 2600 nM. For the same compound, the GI50 (UACC-62 melanoma) was 285 nM, the TGI (UACC-62 melanoma) was 1200 nM and the GI50 (UO-31 renal) was 1130 nM. It also gave a TGI (UO-31 renal) of 2550 nM.
